Data as given in ChEMBL document CHEMBL1126481, “Low molecular weight neurokinin NK2 antagonists” (Bioorg Med Chem Lett, 1993).
Peptide text beside a SMILES is read from it.

Legend:
[1] = biological target: T1, Substance-K receptor (Rattus norvegicus) (UniProt P16610); test: In vitro for antagonism against neurokinin NK2 receptor in rat colon muscularis mucosae; assay type: functional, tissue-based; settings: Muscularis mucosa
T1 sequence (whole entry): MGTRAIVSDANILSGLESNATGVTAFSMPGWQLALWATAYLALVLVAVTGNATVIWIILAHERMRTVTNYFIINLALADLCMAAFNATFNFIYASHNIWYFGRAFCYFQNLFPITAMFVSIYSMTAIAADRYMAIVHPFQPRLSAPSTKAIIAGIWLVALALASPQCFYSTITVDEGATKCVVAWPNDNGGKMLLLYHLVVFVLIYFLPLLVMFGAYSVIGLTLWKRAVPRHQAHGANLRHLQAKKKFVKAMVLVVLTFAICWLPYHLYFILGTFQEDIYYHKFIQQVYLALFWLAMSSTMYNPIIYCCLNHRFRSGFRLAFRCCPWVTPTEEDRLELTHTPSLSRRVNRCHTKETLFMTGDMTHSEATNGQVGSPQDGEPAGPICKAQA

[2] = biological target: Substance-P receptor (Cavia porcellus) (UniProt P30547); test: The compound was tested […] for antagonism against neurokinin NK1 receptor in isolated guinea pig trachea.; assay type: functional
[3] = biological target: T2, Substance-K receptor (Cavia porcellus) (UniProt Q64077); test: The compound was tested […] for antagonism against neurokinin NK2 receptor in isolated guinea pig trachea.; assay type: functional
T2 sequence (whole entry): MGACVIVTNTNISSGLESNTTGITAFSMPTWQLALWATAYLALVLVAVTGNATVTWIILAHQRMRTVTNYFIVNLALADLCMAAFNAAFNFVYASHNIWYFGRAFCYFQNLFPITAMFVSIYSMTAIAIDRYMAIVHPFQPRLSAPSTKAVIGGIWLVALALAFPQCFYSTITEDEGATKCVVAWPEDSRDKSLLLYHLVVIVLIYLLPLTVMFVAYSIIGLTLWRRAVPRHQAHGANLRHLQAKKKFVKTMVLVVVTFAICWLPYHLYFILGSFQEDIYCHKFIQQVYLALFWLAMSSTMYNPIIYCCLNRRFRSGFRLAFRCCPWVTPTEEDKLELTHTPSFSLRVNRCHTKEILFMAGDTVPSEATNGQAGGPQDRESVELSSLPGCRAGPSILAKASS

[4] = Biological half life when administered at 0.1 umol/kg intravenously to guinea pig in GR-64349 antagonism; assay type: ADME, organism-based, Cavia porcellus; settings: in vivo, iv
[5] = Biological half life when administered at 5 umol/kg intravenously to guinea pig in GR-64349 antagonism; assay type: ADME, organism-based, Cavia porcellus; settings: in vivo, iv
[6] = biological target: T2, Substance-K receptor (Cavia porcellus); test: The compound was tested in vitro for antagonism against Tachykinin receptor 2 in isolated guinea pig trachea; assay type: functional, tissue-based
[7] = biological target: T1, Substance-K receptor (Rattus norvegicus); test: The compound was tested in vitro for antagonism against Tachykinin receptor 2 in rat colon muscularis mucosae.; assay type: functional, tissue-based; settings: Muscularis mucosa
Oryctolagus cuniculus = organism: Oryctolagus cuniculus; test: Tested for antagonistic activity of compound in endothelium-deprived rabbit pulmonary artery; assay type: functional; settings: read-out: pA2 (converted)

Chain of Substance-P receptor (Cavia porcellus) (P30547 whole entry): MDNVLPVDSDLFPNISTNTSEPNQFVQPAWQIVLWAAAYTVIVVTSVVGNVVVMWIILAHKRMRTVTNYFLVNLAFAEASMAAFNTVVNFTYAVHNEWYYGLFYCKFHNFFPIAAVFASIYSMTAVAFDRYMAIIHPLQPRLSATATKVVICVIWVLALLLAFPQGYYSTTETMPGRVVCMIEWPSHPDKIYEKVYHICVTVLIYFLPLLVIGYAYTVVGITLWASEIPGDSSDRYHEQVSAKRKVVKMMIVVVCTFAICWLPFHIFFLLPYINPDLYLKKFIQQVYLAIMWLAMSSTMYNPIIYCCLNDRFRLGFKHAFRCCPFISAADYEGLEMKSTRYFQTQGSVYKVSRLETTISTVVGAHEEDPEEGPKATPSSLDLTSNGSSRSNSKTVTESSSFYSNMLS

SMILES | pKB [1] | further results
C[C@H](NC(=O)c1ccccc1)C(=O)N[C@@H](C)C(=O)N[C@H](Cc1c[nH]c2ccccc12)C(=O)N[C@@H](Cc1ccccc1)C(=O)O | 6.6 | –
C[C@H](NC(=O)CNC(=O)C1CCCCC1)C(=O)N[C@H](Cc1c[nH]c2ccccc12)C(=O)N[C@@H](Cc1ccccc1)C(=O)N(C)C (HELM PEPTIDE1{[O=C(C1CCCCC1)[*:2]].G.A.[dW].F.[CN(C)[*:1]]}$$$$V2.0) | 9.05 | pKB [2]: 5.1; pKB [3]: 9.3; half-life [4]: 26 min
C[C@H](NC(=O)CNC(=O)c1ccccc1)C(=O)N[C@H](Cc1c[nH]c2ccccc12)C(=O)N[C@@H](Cc1ccccc1)C(=O)N(C)C | 8.87 | –
CC(=O)NC1(c2ccccc2)CCN(CC[C@H](CN(C)C(=O)c2ccccc2)c2ccc(Cl)c(Cl)c2)CC1 [SAREDUTANT] | – | Kb (Oryctolagus cuniculus): 0.0501 nM
CC(C)CCN(C)C(=O)[C@@H](Cc1c[nH]c2ccccc12)NC(=O)[C@H](C)NC(=O)c1c[nH]c(-c2ccccc2)n1 | 7.64 | pKB [2]: 4.9; half-life [5]: 140 min; pKB [3]: 7.9
C[C@H](NC(=O)c1ccccc1)C(=O)N[C@@H](C)C(=O)N[C@H](Cc1c[nH]c2ccccc12)C(=O)N(C)CCc1ccccc1 | 7.4 | –
C[C@H](NC(=O)c1ccccc1)C(=O)N[C@@H](C)C(=O)N[C@H](Cc1c[nH]c2ccccc12)C(=O)N[C@@H](Cc1ccccc1)C(=O)N(C)C | 8.56 | –

The next lines start with results.

pKB [1] | SMILES | further results
6.8 | C[C@H](NC(=O)c1ccccc1)C(=O)N[C@@H](C)C(=O)N[C@H](C#N)Cc1c[nH]c2ccccc12 | half-life [5]: 20 min; pKB [3]: 7.4
6.45 | C[C@H](NC(=O)c1ccccc1)C(=O)N[C@@H](C)C(=O)N[C@H](Cc1c[nH]c2ccccc12)C(=O)N(C)C | –
< 5 | CC(Cc1c[nH]c2ccccc12)NC(=O)[C@H](C)NC(=O)[C@H](C)NC(=O)c1ccccc1 (some centres not stated) | pKB [6]: 7.4; pKB [7]: 6.66
6.02 | C[C@H](NC(=O)c1ccccc1)C(=O)N[C@@H](C)C(=O)NCCc1c[nH]c2ccccc12 | –
8 | CC(C)CCN(C)C(=O)[C@@H](Cc1c[nH]c2ccccc12)NC(=O)[C@H](C)NC(=O)[C@H](C)NC(=O)c1ccccc1 | –
